# Assay results: patent publication US10172830B2, “Pyrazolone compounds having human neutrophil elastase inhibitory properties” (CHIESI FARMACEUTICI S.P.A., priority 2016, dated 2019)
# Target: T1, human neutrophil elastase (HNE) (Homo sapiens, UniProt P08246)
# T1 construct: purchased Sigma E8140
# T1 sequence (P08246 30-247 limits assumed): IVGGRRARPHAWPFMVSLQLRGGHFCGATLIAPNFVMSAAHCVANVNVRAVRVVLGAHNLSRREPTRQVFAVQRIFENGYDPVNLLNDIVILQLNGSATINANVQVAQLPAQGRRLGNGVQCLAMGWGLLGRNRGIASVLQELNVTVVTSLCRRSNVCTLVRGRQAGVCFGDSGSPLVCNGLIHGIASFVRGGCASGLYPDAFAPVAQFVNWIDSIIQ
# Assay: HNE enzyme assay (human neutrophil elastase enzyme activity assay)
# Assay type: biochemical
# Details: human leukocyte elastase 0.00072 U/mL; substrate MeOSuc-Ala-Ala-Pro-Val-AMC 100 μM; 25° C. for 30 minutes; at least two separate experiments; read-out: HNE inhibition (HNE enzyme inhibition, IC50 values)
# In short: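 Human leukocyte elastase (0.00072 U/mL) with 100 μM MeOSuc-AAPV-AMC in Tris/NaCl/CaCl2/Brij-35 buffer, pH 7.5, 1% DMSO, 30 min at 25 °C; stopped with soybean trypsin inhibitor. AMC fluorescence (380/460 nm) as % inhibition of control; IC50 from dose-response curves, ≥2 experiments.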
row,SMILES,IC50 [nM]
1,"Cn1c(-c2nccn2-c2ccc(C#N)cc2)c(C(=O)NC2CCCC2)c(=O)n1-c1cccc(C(F)(F)F)c1 [Example 72, 5-[1-(4-Cyano-phenyl)-1H-imidazol-2-yl]-1-methyl-3-oxo-2-(3-trifluoromethyl-phenyl)-2,3-dihydro-1H-pyrazole-4-carboxylic acid cyclopentyl-amide]",< 1
2,"C[C@H](NC(=O)c1c(-c2ccnn2-c2ccc(C#N)cc2)n(C)n(-c2cccc(C(F)(F)F)c2)c1=O)c1ncc(C[N+](C)(C)Cc2ccccc2)o1 [Example 31, Benzyl-[2-((S)-1-{[2′-(4-cyano-phenyl)-2-methyl-5-oxo-1-(3-trifluoromethyl-phenyl)-2,5-dihydro-1H,2′H-[3,3′]bipyrazolyl-4-carbonyl]-amino}-ethyl)-oxazol-5-ylmethyl]-dimethyl-ammonium bromide]",< 1
3,"Cc1cc(C[N+](C)(C)Cc2cnc([C@H](C)NC(=O)c3c(-c4ccnn4-c4ccc(C#N)cc4)n(C)n(-c4cccc(C(F)(F)F)c4)c3=O)o2)no1 [Example 32, [2-((S)-1-{[2′-(4-Cyano-phenyl)-2-methyl-5-oxo-1-(3-trifluoromethyl-phenyl)-2,5-dihydro-1H,2′H-[3,3′]bipyrazolyl-4-carbonyl]-amino}-ethyl)-oxazol-5-ylmethyl]-dimethyl-(5-methyl-isoxazol-3-ylmethyl)-ammonium chloride]",< 1
4,"Cn1c(-c2ccnn2-c2ccc(C#N)cc2)c(C(=O)N[C@@H]2C[C@@H]3C[N+](C)(C)C[C@@H]3C2)c(=O)n1-c1cccc(C(F)(F)F)c1 [Example 23, (3aS,5R,6aR)-5-{[2′-(4-Cyano-phenyl)-2-methyl-5-oxo-1-(3-trifluoromethyl-phenyl)-2,5-dihydro-1H,2′H-[3,3′]bipyrazolyl-4-carbonyl]-amino}-2,2-dimethyl-octahydro-cyclopenta[c]pyrrolium benzene sulphonate]",< 1

# Continued, values first:
row,IC50 [nM],SMILES
1,< 1,"Cn1c(-c2ccnn2-c2ccc(C#N)cc2)c(C(=O)N[C@H]2CC[C@H](CNC(=O)C[N+](C)(C)C)CC2)c(=O)n1-c1cccc(C(F)(F)F)c1 [Example 54, {[(Trans-4-{[2′-(4-cyano-phenyl)-2-methyl-5-oxo-1-(3-trifluoromethyl-phenyl)-2,5-dihydro-1H,2′H-[3,3′]bipyrazolyl-4-carbonyl]-amino}-cyclohexylmethyl)-carbamoyl]-methyl}-trimethyl-ammonium benzene sulphonate]"
2,< 1,"C[C@H](NC(=O)c1c(-c2ccnn2-c2ccc(C#N)cc2)n(C)n(-c2cccc(C(F)(F)F)c2)c1=O)C(=O)N1CCC([N+](C)(C)Cc2ccccc2)CC1 [Example 35, Benzyl-[1-((S)-2-{[2′-(4-cyano-phenyl)-2-methyl-5-oxo-1-(3-trifluoromethyl-phenyl)-2,5-dihydro-1H,2′H-[3,3′]bipyrazolyl-4-carbonyl]-amino}-propionyl)-piperidin-4-yl]-dimethyl-ammonium bromide]"
